# Assay results as given in PubChem BioAssay AID1963825 (Molecular Pharmacology Branch, DTP, NCI, 2024).
# Assay: Anticancer human tumor 997537-175-T-J1-PDC patient-derived colon adenocarcinoma cell line growth inhibition [POLQ]
# Conditions: 997537-175-T-J1-PDC complex spheroid viability, combination with POLQ inhibitors; for IC50: curve of first compound; for viability, T/C: stronger effect = lower value
# Description: Multicellular complex tumor spheroid response to Polymerase (POL) inhibitors (novobiocin, ART-558, RP6685) in combination with a variety of drugs and investigational agents in selected tumor cell lines
# The POL inhibitors (novobiocin, ART-558, and RP6685) were evaluated both individually and in combination with standard of care and investigational anticancer small molecules within a complex spheroid model of solid tumors. . Complex spheroids include a stromal component modeled by human endothelial cells (HUVEC) and fibroblasts modeled by human mesenchymal stem cells (MSCs). The concentration ranges selected for each drug and investigational agent were based upon clinically achievable concentrations if the clinical Cmax of the agent was known.
# Compounds. The drugs and investigational agents: novobiocin (NSC847541), ART-558 (NSC835418), RP-6685 (NSC848927), peposertib (NSC802822), ceralasertib (NSC780249), elimusertib (NSC800525), camonsertib (NSC841442), AZD-1390 (NSC803789), olaparib (NSC753686), talazoparib (NSC767125), rucaparib (NSC756644), sotorasib (NSC818433), MRTX-1133 (NSC836407), SN-38 (NSC673596), topotecan (NSC609699), epotoside (NSC141540), doxorubicin (NSC123127), gemcitabine (NSC613327), 5-fluorouracil (NSC19893), paclitaxel (NSC125973), vemurafenib (NSC761431), MSA-2 (NSC828583), SN-011 (NSC837082), adavosertib (NSC754352), prexasertib (NSC758257), carboplatin (NSC241240) and oxaliplatin (NSC266046), were obtained from the National Cancer Institute (NCI) Developmental Therapeutics Program Chemical Repository (21). The FDA-approved anticancer drug set is available from the Developmental Therapeutics Program at https://dtp.cancer.gov/organization/dscb/obtaining/. […] The stock solutions were prepared in dimethyl sulfoxide (DMSO, Sigma-Aldrich, St. Louis, MO, cat. D2650), except for the platinum compounds which were prepared in saline (Quality Biological, Gaithersburg, MD, cat. 114-055-101), at 800-fold the tested concentration and stored at -70 degrees C prior to their use. All drugs and investigational agents were tested over a range starting from a high concentration at or near the clinical Cmax and decreasing in half-log increments. If the clinical Cmax for an agent had not been determined, the highest concentration tested was 10 microM, except for SN-38, which was tested at a high concentration of 1 microM.
# Cell Culture. All cells were maintained in an incubator at 37 degrees C and 5% CO2 with 95% humidity. The PDC lines were cultured according to standard operating procedures established by the NCI PDMR (https://pdmr.cancer.gov). Table 3 of the manuscript, lists the cell lines along with the number of the three cell types plated to form the mct-spheroids and media for tumor cell growth. After thawing, all PDC lines, except 997537-175-T-J1-PDC and 415267-285-R-J2-PDC, were cultured in Matrigel-coated flasks prepared with a working solution of 1X Ham's F-12 nutrient mix, without supplementation (Thermo Fisher Scientific, cat. 11765054), 100 U/mL penicillin-streptomycin (Thermo Fisher Scientific, cat. 15140122), and 2.5% Matrigel (Corning Inc., Corning, NY, cat. 354248) for the first three passages. The two PDC lines 997537-175-T-J1-PDC and 415267-285-R-J2-PDC were cultured on uncoated flasks. The 857933-349-R-J2-PDC line was cultured in 6C/Colon 1B media containing advanced DMEM/F-12 (Thermo Fisher Scientific, cat. 12634028), 10 mM HEPES (Thermo Fisher Scientific, cat. 15630080), 1X GlutaMAX supplement (Thermo Fisher Scientific, cat. 35050061), 0.1 mg/mL primocin (InvivoGen, San Diego, CA, cat. ant-pm-2), 10% defined fetal bovine serum, heat inactivated (HyClone Laboratories Inc., Logan, UT, cat. SH30070.03HI), 50% L-WRN conditioned media (ATCC, cat. CRL-3276), 1.25 mM N-Acetyl-L-cysteine (Sigma-Aldrich, cat. A9165), 10 mM nicotinamide (Sigma-Aldrich, cat. N0636), 1X B-27 supplement (Thermo Fisher Scientific, cat. 17504044), 1X N-2 supplement (Thermo Fisher Scientific, cat. […]
# 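Note: luminescence signal used as a surrogate for viable cells; spheroids exposed to drugs for seven days before readout.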
structure (smiles),measurement,setting,value
O=C(c1cc(Cc2n[nH]c(=O)c3ccccc23)ccc1F)N1CCN(C(=O)C2CC2)CC1 + Cc1cccc(N(C)C(=O)C2C(O)CCN2c2nc(C)cc(C(F)(F)F)c2C#N)c1,IC50,second compound 0.0316 µM,> 10 µM
same,IC50,second compound 0.1 µM,> 10 µM
same,IC50,second compound 0.316 µM,> 10 µM
same,IC50,second compound 1 µM,> 10 µM
same,IC50,second compound 3.16 µM,> 10 µM
same,IC50,second compound 10 µM,> 10 µM
same,"viability, T/C","second compound 0.0316 µM, first compound 0.0316 µM",107%
same,"viability, T/C","second compound 0.0316 µM, first compound 0.1 µM",97.5%
same,"viability, T/C","second compound 0.0316 µM, first compound 0.316 µM",94.8%
same,"viability, T/C","second compound 0.0316 µM, first compound 1 µM",92.3%
same,"viability, T/C","second compound 0.0316 µM, first compound 3.16 µM",102%
same,"viability, T/C","second compound 0.0316 µM, first compound 10 µM",103%
same,"viability, T/C","second compound 0.1 µM, first compound 0.0316 µM",91.9%
same,"viability, T/C","second compound 0.1 µM, first compound 0.1 µM",108%
same,"viability, T/C","second compound 0.1 µM, first compound 0.316 µM",102%
same,"viability, T/C","second compound 0.1 µM, first compound 1 µM",105%
same,"viability, T/C","second compound 0.1 µM, first compound 3.16 µM",101%
same,"viability, T/C","second compound 0.1 µM, first compound 10 µM",86.2%
same,"viability, T/C","second compound 0.316 µM, first compound 0.0316 µM",107%
same,"viability, T/C","second compound 0.316 µM, first compound 0.1 µM",105%
same,"viability, T/C","second compound 0.316 µM, first compound 0.316 µM",109%
same,"viability, T/C","second compound 0.316 µM, first compound 1 µM",99%
same,"viability, T/C","second compound 0.316 µM, first compound 3.16 µM",118%
same,"viability, T/C","second compound 0.316 µM, first compound 10 µM",110%
same,"viability, T/C","second compound 1 µM, first compound 0.0316 µM",99.1%
same,"viability, T/C","second compound 1 µM, first compound 0.1 µM",102%
same,"viability, T/C","second compound 1 µM, first compound 0.316 µM",109%
same,"viability, T/C","second compound 1 µM, first compound 1 µM",97.1%
same,"viability, T/C","second compound 1 µM, first compound 3.16 µM",100%
same,"viability, T/C","second compound 1 µM, first compound 10 µM",87.5%
same,"viability, T/C","second compound 3.16 µM, first compound 0.0316 µM",101%
same,"viability, T/C","second compound 3.16 µM, first compound 0.1 µM",108%
same,"viability, T/C","second compound 3.16 µM, first compound 0.316 µM",92.2%
same,"viability, T/C","second compound 3.16 µM, first compound 1 µM",92.1%
same,"viability, T/C","second compound 3.16 µM, first compound 3.16 µM",97.5%
same,"viability, T/C","second compound 3.16 µM, first compound 10 µM",103%
same,"viability, T/C","second compound 10 µM, first compound 0.0316 µM",99.3%
same,"viability, T/C","second compound 10 µM, first compound 0.1 µM",87.3%
same,"viability, T/C","second compound 10 µM, first compound 0.316 µM",91.1%
same,"viability, T/C","second compound 10 µM, first compound 1 µM",97%
same,"viability, T/C","second compound 10 µM, first compound 3.16 µM",87.1%
same,"viability, T/C","second compound 10 µM, first compound 10 µM",96.4%
